Experimental data from patent US20060235062A1, “Novel heterocyclic analogs of diphenylethylene compounds” (THERACOS, INC., priority 2002, published 2006).

How the values were obtained:
IkappaB = assay: LPS-stimulated phosphorylation of IkappaB in RAW 264.7 cells; assay type: cell-based; conditions: RAW 264.7 cells, 3, 10 or 30, LPS plus IFN-gamma, anti-phospho-IkappaB blot
IL-6 = assay: LPS-induced IL-6 production in RAW cells (ELISA); assay type: cell-based; conditions: RAW cells, 0.1, 1, 10, 50 or 100 pM, FIG. 10
NF-kB p65 = NF-kB p65 activation in LPS-stimulated RAW cells (ELISA); assay type: cell-based; conditions: 10 μM, 1 μg/ml LPS 15 min, FIG. 15
AIA rats = assay: Cancellous bone loss in adjuvant induced arthritic (AIA) rats, MicroCT of right proximal tibia; assay type: in vivo, male Lewis rats
COX-1 = biological target: T1, COX-1 (Mus musculus, UniProt P22437); assay: COX-1 activity in RAW cells; assay type: cell-based; conditions: 0.1-100 μM
T1 construct: aliquots used to determine COX-2 and COX-1 activity; endogenous in cells; host or cells: RAW (RAW 264.7) cells
T1 sequence (P22437 27-602): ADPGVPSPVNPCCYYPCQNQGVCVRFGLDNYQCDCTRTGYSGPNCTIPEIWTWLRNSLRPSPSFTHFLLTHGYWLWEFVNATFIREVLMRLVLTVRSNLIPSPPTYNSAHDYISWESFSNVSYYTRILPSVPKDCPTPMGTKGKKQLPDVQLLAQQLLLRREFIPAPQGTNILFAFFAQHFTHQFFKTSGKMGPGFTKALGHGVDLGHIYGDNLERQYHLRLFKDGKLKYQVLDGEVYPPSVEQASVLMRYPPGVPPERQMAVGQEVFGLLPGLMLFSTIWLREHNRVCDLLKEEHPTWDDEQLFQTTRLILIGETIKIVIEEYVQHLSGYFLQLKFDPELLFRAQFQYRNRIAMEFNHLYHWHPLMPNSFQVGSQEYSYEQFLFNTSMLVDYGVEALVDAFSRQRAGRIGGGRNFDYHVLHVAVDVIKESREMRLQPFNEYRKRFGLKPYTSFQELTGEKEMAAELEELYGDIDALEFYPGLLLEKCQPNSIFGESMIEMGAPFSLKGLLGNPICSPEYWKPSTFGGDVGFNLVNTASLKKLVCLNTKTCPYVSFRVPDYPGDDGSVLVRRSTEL
Description: (§1) After 1 hour LPS (0.1 pg/mL) was added and cells were incubated an additional 6 hours. Cell supernatant was then collected, aliquoted and frozen at −70° C., and aliquots used to determine COX-2 and COX-1 activity. Compound 11, but not rosiglitazone, inhibited the activity of COX-2 (as measured by PGE2 production in a 50 μl sample).

ZDF rats = assay: Antihyperglycemic activity in Zucker diabetic fatty rats; assay type: in vivo
COX-2 = biological target: T2, COX-2 (Mus musculus, UniProt Q05769); assay: LPS-induced COX-2 activity in RAW cells (PGE2 production); assay type: cell-based; conditions: 0.1-100 μM, FIG. 12
T2 sequence (Q05769 18-604): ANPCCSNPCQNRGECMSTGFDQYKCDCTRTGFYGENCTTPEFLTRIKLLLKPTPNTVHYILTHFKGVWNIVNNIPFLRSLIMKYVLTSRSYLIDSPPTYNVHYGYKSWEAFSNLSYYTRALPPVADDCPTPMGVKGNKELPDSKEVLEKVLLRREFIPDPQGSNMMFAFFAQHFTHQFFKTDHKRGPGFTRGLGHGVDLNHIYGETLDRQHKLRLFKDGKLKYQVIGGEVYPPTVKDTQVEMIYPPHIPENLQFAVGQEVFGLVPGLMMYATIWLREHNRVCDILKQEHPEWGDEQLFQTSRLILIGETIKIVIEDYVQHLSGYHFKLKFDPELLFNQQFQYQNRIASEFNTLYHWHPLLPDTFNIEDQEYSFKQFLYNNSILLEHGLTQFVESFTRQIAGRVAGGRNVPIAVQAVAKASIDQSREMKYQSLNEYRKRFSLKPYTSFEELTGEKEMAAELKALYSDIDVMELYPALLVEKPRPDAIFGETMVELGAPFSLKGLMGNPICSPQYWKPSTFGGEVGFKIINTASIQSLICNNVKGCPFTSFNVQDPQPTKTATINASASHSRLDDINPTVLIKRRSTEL
Description: as §1

3T3-L1 adipocytes = assay: Glucose uptake in differentiated 3T3-L1 adipocytes; assay type: cell-based
Description: Referring to FIG. 8 glucose uptake in 3T3-L1 differentiated adipocytes was measured after treatment with the test compound. The assay was conducted according to the method of Tafuri, Endocrinology, 137, 4706-4712 (1996). The serum-starved cells were treated with the test compound for 48 hours at different concentrations, then washed and incubated in glucose-free media for 30 minutes at 37° C. Then ^14C-deoxyglucose was added and uptake was monitored for 30 minutes under incubation. After washing, the cells were lysed (0.1% SIDS) and counted.
Basal glucose uptake was measured in differentiated 3T3-L1 adipocytes following the protocol of Tafuri (6) with modifications. Briefly, 3T3-L1 fibroblasts, obtained from ATCC (Manassas, Va.), were differentiated to adipocytes by treating cells with porcine insulin (1 μg/ml for 4 days), dexamethasone (0.25 μM for first 2 days) and isobutyl methyl xanthine (IBMX, 0.5 mM for first 2 days) (all from Sigma Chemicals, St Louis, Mo.) following the protocol of Frost and Lane (7). Differentiated adipocytes were incubated in Dulbecco's Modified Eagle Medium (DMEM) containing 10% fetal bovine serum (GibcoBRL, Gaithersburg, Md.) with various concentrations of Compound 11 or vehicle (0.1% DMSO) for 48 h in 24-well plates, in triplicate. Cells were washed with phosphate buffered saline (PBS, 150 mM NaCl, 1 mM KH2PO4, 3 mM Na2HPO4; pH 7.4) and incubated in glucose-free DMEM for 2 h at 37° C. The cells were washed 3 times with Krebs Ringer Phosphate Buffer (KRP). Glucose uptake was initiated by addition of 0.25 μCi 2-^14C(U)-deoxy-D-glucose (300 μCi/mmol, American Radiolabeled Chemicals Inc., St Louis, Mo.) per well and the cells incubated for 10 min at room temperature in the presence of 0.1 mmol cold 2-deoxy-D-glucose. Finally, the cells were washed three times with ice-cold PBS containing 10 mM cold glucose, lysed with 0.5% SDS, and counted in a scintillation counter (Beckman LS6500).

COC(=O)C(=Cc1cc(OC)cc(OC)c1)c1ccc(Oc2ccc(CC3SC(=O)NC3=O)cc2)cc1 (centres unmarked) [Compound 11, 3-(3,5-Dimethoxyphenyl)-2-{4-[4-(2,4-dioxothiazolidin-5-ylmethyl)-phenoxy]-phenyl}-acrylic acid methyl ester]
inhibition of the phosphorylation of IkappaB (IkappaB): dose-dependent inhibition
inhibition of LPS-induced IL-6 production (IL-6): better inhibitor of IL-6 than rosiglitazone
inhibition of the activation of NF-kB (p65) (NF-kB p65): inhibited
less cancellous bone lost (AIA rats; AIA rats, treated vs vehicle): ~50%
C.Th (AIA rats; right proximal tibia): 186 ± 25 μm
Conn. Dens (AIA rats; right proximal tibia): 38.3 ± 19.7 l/mm3
SMI (0-3) (AIA rats; right proximal tibia): 2.8 ± 0.3
Tb.N (AIA rats; right proximal tibia): 2.6 ± 0.5 l/mm
BV/TV (AIA rats; right proximal tibia, compound 11 50 mg/kg oral, etanercept 1.67 mg/kg i.p., once daily): 13.7 ± 4.7%
inhibition of COX-1 activity (COX-1): Neither compound inhibited
glucose levels (ZDF rats): normalizes glucose levels
more weight gained than control animals (ZDF rats; 50 mg/kg oral once daily, 8 to 9 days): 13%
decrease in blood glucose levels (ZDF rats; 50 mg/kg oral once daily, 8 to 9 days, FIG. 21): 50 % vs baseline
inhibition of COX-2 activity (PGE2 production) (COX-2): inhibited
glucose uptake activity in words (3T3-L1 adipocytes; 0.1 μM): retained activity, but less than that of rosiglitazone
glucose uptake activity in words (3T3-L1 adipocytes; 1 μM): comparable to rosiglitazone
effect on insulin-stimulated glucose uptake (3T3-L1 adipocytes; 5 μM with increasing insulin, FIG. 20B): additive, not synergistic
maximum glucose uptake over basal levels (3T3-L1 adipocytes; 0.01-10 μM, 48 h, mean±SE, FIG. 20A): 1.33±0.02 fold
% Glucose uptake 0.1 μm (3T3-L1 adipocytes; 0.1 μm, average of quadruplicate ± SD): 161.6 ± 11.4 % basal of the non treated cells
% Glucose uptake 1.0 μm (3T3-L1 adipocytes; 1.0 μm, average of quadruplicate ± SD): 218.1 ± 10.0 % basal of the non treated cells
